Reference: article PMC7134380 (Journal of the American Chemical Society, 2020)

Biological target: T1, human ornithine aminotransferase (hOAT) (Homo sapiens, UniProt P04181)
T1 sequence (P04181 26-439 limits assumed): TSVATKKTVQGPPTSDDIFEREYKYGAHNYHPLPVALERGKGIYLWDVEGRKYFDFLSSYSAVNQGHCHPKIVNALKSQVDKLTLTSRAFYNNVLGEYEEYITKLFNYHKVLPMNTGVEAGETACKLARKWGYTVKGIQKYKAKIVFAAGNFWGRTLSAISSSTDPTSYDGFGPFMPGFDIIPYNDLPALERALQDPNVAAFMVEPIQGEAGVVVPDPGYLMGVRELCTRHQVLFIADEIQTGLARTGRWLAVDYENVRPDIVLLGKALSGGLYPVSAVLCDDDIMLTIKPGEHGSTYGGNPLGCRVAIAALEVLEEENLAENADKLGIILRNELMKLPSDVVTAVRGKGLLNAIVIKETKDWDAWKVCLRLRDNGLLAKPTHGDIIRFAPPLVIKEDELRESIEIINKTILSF
Experiment: time-dependent inactivation kinetics
Assay type: biochemical
Conditions: read-out: hOAT / KI; covalent; mechanism-based inactivator (kinact/KI analysis)

KI (inactivation): 1400 ± 41 µM
Structure (SMILES): N[C@H]1C[C@@H](C(=O)O)C[C@@H]1F [compound 1, (1R,3S,4S)-3-amino-4-fluorocyclopentane-1-carboxylic acid]
